Where a name gives a salt, the structure may show the parent alone.
How the values were obtained:
[1] = system: HACAT cells; assay: qHTS cell viability (CellTiter-Glo, 72 h; primary screen), control cell line; format: cell-based, human
[2] = system: MCC26 cells (VN-MCC); assay: qHTS cell viability (CellTiter-Glo, 72 h; primary and follow-up small molecule screen); format: cell-based, human
[3] = system: UISO cells (VN-MCC); assay: as above; format: cell-based, human
[4] = system: MCC13 cells (VN-MCC); assay: as above; format: cell-based, human
[5] = system: NIH-3T3 cells; assay: qHTS cell viability (CellTiter-Glo, 72 h; primary screen), control cell line; format: cell-based, mouse
[6] = system: HEK293T cells; assay: as above; format: cell-based, human
[7] = system: VP-MCC cell lines (WAGA, MKL-1, MKL-2); assay: qHTS cell viability, VP-MCC cell lines as a group (mean AUC, VP.MCC.avg); format: cell-based, human; conditions: for VP-MCC_Avg_AUC: mean AUC of VP-MCC cell lines
[8] = system: six MCC cell lines and four control cell lines; assay: qHTS cell viability, all 10 cell lines screened; format: cell-based
[9] = system: WAGA cells (VP-MCC); assay: qHTS cell viability (CellTiter-Glo, 72 h; primary and follow-up small molecule screen); format: cell-based, human
[10] = system: control cell lines (HACAT, HEK293T, CRL-7250, NIH-3T3); assay: qHTS cell viability, control cell lines as a group (mean AUC, Control.avg); format: cell-based; conditions: mean AUC of control cell lines
[11] = system: MKL-1 cells (VP-MCC); assay: qHTS cell viability (CellTiter-Glo, 72 h; primary and follow-up small molecule screen); format: cell-based, human
[12] = system: CRL-7250 cells; assay: qHTS cell viability (CellTiter-Glo, 72 h; primary screen), control cell line; format: cell-based
[13] = system: MCC cell lines (WAGA, MKL-1, MKL-2, MCC13, MCC26, UISO); assay: qHTS cell viability, all six MCC cell lines as a group (mean AUC, MCC.avg); format: cell-based, human; conditions: mean AUC of six MCC cell lines
[14] = system: MKL-2 cells (VP-MCC); assay: qHTS cell viability (CellTiter-Glo, 72 h; primary and follow-up small molecule screen); format: cell-based, human
[15] = system: VN-MCC cell lines (MCC13, MCC26, UISO); assay: qHTS cell viability, VN-MCC cell lines as a group (mean AUC, VN.MCC.avg); format: cell-based, human; conditions: for VN-MCC_Avg_AUC: mean AUC of VN-MCC cell lines
[16] = MIPE library, 11-point DRC, control cell line, sheet S2E
[17] = MIPE library, 11-point DRC, sheet S2E
[18] = MIPE library, Control AUC minus VP-MCC AUC (therapeutic window), sheet S2E
[19] = MIPE library, Control AUC minus MCC AUC (therapeutic window), sheet S2E
[20] = MIPE library, Control AUC minus VN-MCC AUC (therapeutic window), sheet S2E

Row | Structure (SMILES) | HACAT_AUC [1, 16] | MCC26_AUC [2, 17] | UISO_AUC [3, 17] | MCC13_AUC [4, 17] | NIH3T3_AUC [5, 16] | HEK293T_AUC [6, 16] | Control-VP-MCC [7, 18] | VP-MCC_Avg_AUC ([7]; MIPE library, sheet S2E) | Control-MCC [8, 19] | WAGA_AUC [9, 17] | Control_Avg_AUC ([10]; MIPE library, sheet S2E) | MKL1_AUC [11, 17] | CRL7250_AUC [12, 16] | MCC_Avg_AUC ([13]; MIPE library, sheet S2E) | MKL2_AUC [14, 17] | Control-VN-MCC [15, 20] | VN-MCC_Avg_AUC ([15]; MIPE library, sheet S2E) | further results
1 | CC1(C)CCC(c2ccc(Cl)cc2)=C(CN2CCN(c3ccc(C(=O)N[S+](=O)([O-])c4ccc(N[C@H](CCN5CCOCC5)CSc5ccccc5)c([S+](=O)([O-])C(F)(F)F)c4)cc3)CC2)C1 [ABT-263 (Navitoclax)] | 444.442 | 476.41 | 533.391 | 470.158 | 462.454 | 470.677 | 189.019 | 272.305 | 78.5112 | 250.192 | 461.324 | 289.046 | 467.721 | 382.812 | 277.677 | -31.9962 | 493.32 | –
2 | CC1=C(/C=C/C(C)=C/C=C/C(C)=C\C(=O)O)C(C)(C)CCC1 [Isotretinoin] | 476.199 | 479.481 | 453.203 | 457.493 | 458.083 | 469.58 | 50.6007 | 414.91 | 26.3592 | 423.315 | 465.51 | 418.758 | 458.179 | 439.151 | 402.656 | 2.118 | 463.393 | HACAT_AUC ([1]; area under the dose-response curve, HACAT control cells, AUC<450 = reduced viability): 476.199; MCC26_AUC ([2]; area under the dose-response curve, MCC26 cells, AUC<450 = reduced viability): 479.481; UISO_AUC ([3]; area under the dose-response curve, UISO cells, AUC<450 = reduced viability): 453.203; MCC13_AUC ([4]; area under the dose-response curve, MCC13 cells, AUC<450 = reduced viability): 457.493; NIH3T3_AUC ([5]; area under the dose-response curve, NIH3T3 control cells, AUC<450 = reduced viability): 458.083; HEK293T_AUC ([6]; area under the dose-response curve, HEK293T control cells, AUC<450 = reduced viability): 469.58; WAGA_AUC ([9]; area under the dose-response curve, WAGA cells, AUC<450 = reduced viability): 423.315; MKL1_AUC ([11]; area under the dose-response curve, MKL-1 cells, AUC<450 = reduced viability): 418.758; CRL7250_AUC ([12]; area under the dose-response curve, CRL7250 control cells, AUC<450 = reduced viability): 458.179; MKL2_AUC ([14]; area under the dose-response curve, MKL-2 cells, AUC<450 = reduced viability): 402.656
3 | CCOC(=O)[C@@](C)(N)Cc1ccc(O)c(O)c1 [Methyldopate hydrochloride] | – | – | – | – | – | – | – | – | – | – | – | – | – | – | – | – | – | HACAT_AUC ([1]; NPC library, qHTS dose-response AUC, HACAT control): 480.325; MCC26_AUC ([2]; NPC library, qHTS dose-response AUC, MCC26): 437.99; UISO_AUC ([3]; NPC library, qHTS dose-response AUC, UISO): 416.553; MCC13_AUC ([4]; NPC library, qHTS dose-response AUC, MCC13): 447.588; NIH3T3_AUC ([5]; NPC library, qHTS dose-response AUC, NIH3T3 control): 431.18; HEK293T_AUC ([6]; NPC library, qHTS dose-response AUC, HEK293T control): 443.954; VP-MCC_Avg_AUC ([7]; NPC library): 389.202; Control-VP-MCC ([7]; NPC library, therapeutic window: Control avg AUC minus VP-MCC avg AUC): 52.6846; Control-MCC ([8]; NPC library, therapeutic window: Control avg AUC minus MCC avg AUC): 30.264; WAGA_AUC ([9]; NPC library, qHTS dose-response AUC, WAGA): 402.509; Control_Avg_AUC ([10]; NPC library): 441.887; MKL1_AUC ([11]; NPC library, qHTS dose-response AUC, MKL1): 366.496; CRL7250_AUC ([12]; NPC library, qHTS dose-response AUC, CRL7250 control): 412.089; MCC_Avg_AUC ([13]; NPC library): 411.623; MKL2_AUC ([14]; NPC library, qHTS dose-response AUC, MKL2): 398.602; VN-MCC_Avg_AUC ([15]; NPC library): 434.044; Control-VN-MCC ([15]; NPC library, therapeutic window: Control avg AUC minus VN-MCC avg AUC): 7.843

From PMC11822212, “High-throughput screening identifies Aurora kinase B as a critical therapeutic target for Merkel cell carcinoma” (Nature Communications, 2025)
